Measurements taken from patent US20180071313A1, “DRY EYE THERAPEUTIC AGENT […] ESTER THEREOF OR M[…] ESTER THEREOF AS AN ACTIVE INGREDIENT” (SANTEN PHARMACEUTICAL CO., LTD., priority 2015, published 2018).

Tests used:
[1] = system: lipophilin CL2 (L-CL2) gene; assay: Pharmacological Study (2): expression level of lipophilin CL2 (L-CL2) gene in lacrimal gland cells, quantitative PCR; format: cell-based, rabbits (Japanese White, females); conditions: isolated rabbit lacrimal gland cells, drug culture for 2 days, 0.1% DMSO; FIG. 3
Description: A comparative study of the action of increasing the expression level of lipophilin CL2 (L-CL2) gene by both nandrolone decanoate and methenolone acetate was conducted by allowing both drugs to act on lacrimal gland tissue cells. Furthermore, lipophilins are proteins that are synthesized in the lacrimal gland and are observed to be present in large amounts in the tears of humans and rabbits.
Each drug was dissolved in DMSO followed by diluting with DMEM/F-12 (D/F medium) to a final DMSO concentration of 0.1%. […]
Quantitative PCR was carried out by using primers designed by respectively joining to cDNA synthesized from the drug-treated lacrimal gland cells using the CellAmp Direct RNA Prep Kit and PrimeScript RT MasterMix (both manufactured by Takara Bio, Inc.), the QuantiFast SYBR Green PCR Kit (Qiagen Corp.), Rabbit L-CL2 gene (Accession No.: NM_001082095) and Rabbit GAPDH gene (Accession No.: NM_001082253). The expression level of L-CL2 gene of each of the drug-treated cells was corrected with expression of each GAPDH gene and expressed as the relative ratio to the expression level of cells treated with base (D/F medium containing 0.1% DMSO).

[2] = Pharmacokinetics Study (2): nandrolone concentration in the lacrimal glands after nandrolone decanoate to eyelid skin or instillation; format: in vivo, Rabbits (Japanese White, males); conditions: 2, 4, 8, 24 hours, LC-MS/MS, FIG. 2
Description: A study was conducted for change over time of nandrolone concentration in the lacrimal glands after administration of nandrolone decanoate to eyelid skin, or instillation thereof.
0.4 g of nandrolone decanoate were added to castor oil followed by bringing to a volume of 20 mL and dissolving therein to prepare an ointment containing 2% (w/v) of nandrolone decanoate. In addition, a preparation of the same composition was used as an ophthalmic solution containing nandrolone decanoate.
Rabbits (Japanese White, males, purchased from Kitayama Labes Co., Ltd.) were used in the study. Fur of the right upper eyelid was shaved by using an electric hair clipper under general anesthesia on the day before drug administration followed by fitting the rabbits with Elizabethan collars prior to administration. […]
The rabbits were euthanized at 2, 4, 8 and 24 hours after administration and the right upper lacrimal gland tissue was excised (from 3 animals at each time). The lacrimal gland tissue was homogenized in methanol and the concentration of nandrolone (active form of nandrolone decanoate) in the centrifuged supernatant was measured by LC-MS/MS. The concentration of nandrolone in the lacrimal gland tissue was calculated from the wet weight of the tissue measured prior to homogenization and the concentration of nandrolone in the measured specimen.

TL in tears = assay: Pharmacological Study (1): amount of TL in tears after administration to eyelid skin; format: in vivo, Rabbits (Japanese White, females); conditions: cream 1% (w/v), eyelid skin of one eye, once per day 40 μL, two weeks after application vs before; rabbits with lower lacrimal gland and nictitating membrane excised, ketoconazole; mean ± standard error, n=4
Description: A study was conducted in rabbits as to whether or not the administration of nandrolone decanoate and methenolone acetate to eyelid skin increases the amount of TL in tears.
A cream containing 1% (w/v) of nandrolone decanoate, a cream containing 1% (w/v) of methenolone acetate and a base were prepared in the manner of the compositions indicated in Table 1.
Rabbits (Japanese White, females, purchased from Kitayama Labes Co., Ltd.) were used in the study. […]
Schirmer test paper (Showa Yakuhin Kako Co., Ltd.) was inserted into the conjunctival sac of the lower eyelid before application and two weeks after application to collect tears, followed by subjecting each of the collected tear specimens to slab gel electrophoresis. Following electrophoresis, the gel was stained with Coomassie Brilliant Blue stain, all protein bands, including the TL band at a molecular weight of about 17 kilodaltons, were detected, and the percentage of TL (% TL) in the total amount of protein present in the tears was calculated by image analysis of the resulting gel. The difference between the % TL before application and the % TL after application was determined for each individual and expressed as an increase in % TL (A % TL).

In the case of `CCCCCCCCCC(=O)O[C@H]1CC[C@H]2[C@@H]3CCC4=CC(=O)CC[C@@H]4[C@H]3CC[C@]12C` [Nandrolone decanoate, 17β-decanoyloxy-19-nor-4-androsten-3-one], the “expression of L-CL2 gene (corrected with GAPDH, relative ratio to base-treated cells)” value [1] is reported as “increases expression of L-CL2 gene in lacrimal gland cells”, the “concentration of nandrolone in the lacrimal gland over time” value ([2]; single 50 μL ointment 2% (w/v) nandrolone decanoate to right upper eyelid skin) is reported as “somewhat lower than the concentration of methenolone in lacrimal gland tissue after administration of methenolone acetate to eyelid skin” and the “concentration of nandrolone in the lacrimal gland over time” value ([2]; single 50 μL ophthalmic solution 2% (w/v) nandrolone decanoate by instillation into right eye) is reported as “much lower than in the case of administration to eyelid skin”. The “Δ % TL (increase in percentage of TL in total tear protein)” value (TL in tears) was 4.30 ± 0.473%.
